Laboratory results: US20260364184A1, “COMPOUND BASED ON OXOISOINDOLINYL-SUBSTITUTED TETRAHYDROPYRIMIDINE-DIONE AND USE THEREOF” (GLUETACS THERAPEUTICS (SHANGHAI) CO., LTD., priority 2023, published 2026)

Legend:
[1] = target: T1, EGFR (Homo sapiens, UniProt P00533); assay: Western blot degradation of EGFR; type: cell-based; settings: H1975 Cell; 24 hours
T1 construct: L858R/T790M in cis, heterozygous with wild type), Western blot
Description: Conventional Western blot assay was performed to evaluate the effects of the compounds of the present disclosure on the expression of target proteins in cells.
(1) Cell Seeding and Protein Harvesting: The selected cells were processed according to the cell seeding procedure and protein harvesting procedure in Table II-2.
(2) To the collected supernatant, 5×SDS sample loading buffer was added, followed by denaturation at 95 °C for 5 minutes. The denatured samples were then separated by SDS-PAGE electrophoresis on a polyacrylamide gel. Proteins were transferred to a nitrocellulose membrane (0.45 μm NC membrane), blocked with blocking buffer at room temperature for 1 hour, and subjected to antibody incubation and development procedures according to the antibody manufacturer's instructions (Cell Signaling Technology).
Half-Maximal Degradation Concentration value (the drug concentration required for degrading proteins by 50%, abbreviated as DC50) reads method: comparing the grayscale values of Western blot bands from drug-treated samples with those from blank DMSO-treated controls, and identifying the drug concentration range at which the grayscale value is half that of the DMSO-treated control bands.
DC50 values can be calculated using ImageJ software to measure grayscale values of Western blot bands from drug-treated samples. The concentration-response curve is fitted to estimate the drug concentration corresponding to half the grayscale value.
Target protein remaining (%) refers to the percentage of target protein remaining in cells after treatment with protein degrader compounds.
Calculation method for target protein remaining (%): Use ImageJ software to measure grayscale values of Western blot bands from drug (protein degrader)-treated samples. The grayscale value of drug-treated bands is divided by that of internal control protein bands, and the resulting quotient is normalized to obtain the relative percentage of remaining target protein after protein degrader treatment.
Target protein degradation rate (%)=1−target protein remaining (%).

[2] = system: Human non-small cell lung cancer cell line NCI-H1975; assay: Inhibition of H1975 cell proliferation (CellTiter luminescent viability); type: cell-based; settings: Table ID1, EGFR inhibitor-based; H1975, 96 hours; read-out: Inhibitory activity (IC50, nM) on tumor cell proliferation, H1975
Description: The tumor cells used herein were cultured in a cell culture medium listed in table 3 at 37 °C in an incubator with 5% CO2. Prior to experimentation, all cell lines used were correctly identified by STR profiling, and tested negative for mycoplasma contamination using a mycoplasma detection kit through routine screenings.
The IC50 values of the compounds of the present disclosure (including the compounds in Table 1, Table 2, and Examples 1-468) were determined using the CellTiter-Meiluncell Luminescent Cell Viability Assay Kit from Dalian Meilun Biotech Co., Ltd. The detailed procedure is as follows: Tumor cells were seeded in 96-well cell culture plates at the densities specified in Table 4. On the following day, the test compounds of the present disclosure were subjected to serial dilution. The dilution can be performed according to one of the following two methods: • (1) The first dilution method: The test compounds of the present disclosure (including the compounds in Table 1, Table 2, and Examples 1-468) were subjected to 5-fold serial dilutions starting from a highest concentration of 2000 μM, resulting in a total of 9 concentrations from high to low (2000, 400, 80, 16, 3.2, 0.64, 0.128, 0.0256, 0.00512 μM). Subsequently, 0.5 μL of the test compound dilution was transferred into the 96-well plate containing the cells, with each well containing 100 μL of cell culture medium. […] Into the 96-well plate, the diluted test compounds and corresponding detection reagents were added, resulting in final test compound concentrations of 500 nM and 10 nM, respectively. The experimental procedure is described below using the diluted 2 μM test compound as an example.
0.5 μL of the aforementioned diluted compound of the present disclosure (including the compounds in Table 1, Table 2, and Examples 1-468) was added to the seeded cells in 100 μL of medium, yielding a final test compound concentration of 10 nM. After the cells were treated with the compounds of the present disclosure for a specified period, the cell viability assay reagent was added to the culture medium according to the kit's instructions to determine cell viability. […] All controls were treated using the same procedure as the compounds of the present disclosure. The growth inhibition curves for the compounds of the present disclosure were plotted using Prism GraphPad software, and the IC50 values were calculated therefrom.

[3] = target: T2, human Cereblon WT GST-tagged protein (CRBN) (Homo sapiens, UniProt Q96SW2); assay: CRBN binding by HTRF (Cereblon binding kit)
T2 construct: purchased CISBIO 64BDCRBNPEH
T2 sequence (Q96SW2 whole entry): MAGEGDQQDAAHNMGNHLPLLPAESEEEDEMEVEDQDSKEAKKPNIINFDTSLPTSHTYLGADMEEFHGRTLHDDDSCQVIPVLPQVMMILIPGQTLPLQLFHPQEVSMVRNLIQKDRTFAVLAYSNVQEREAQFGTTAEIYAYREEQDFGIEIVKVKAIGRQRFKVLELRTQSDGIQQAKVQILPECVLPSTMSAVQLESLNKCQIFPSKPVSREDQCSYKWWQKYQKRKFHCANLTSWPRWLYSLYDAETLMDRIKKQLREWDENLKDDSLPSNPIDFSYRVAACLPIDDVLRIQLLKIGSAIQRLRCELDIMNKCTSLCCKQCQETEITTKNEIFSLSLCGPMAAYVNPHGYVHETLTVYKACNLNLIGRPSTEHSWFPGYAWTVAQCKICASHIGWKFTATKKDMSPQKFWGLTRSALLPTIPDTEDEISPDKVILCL
Procedure, shortened: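 GST-tagged human Cereblon WT was incubated 3 h at room temperature with compound, thalidomide-Re tracer and Eu anti-GST antibody. Final compound concentrations were 10 to 0.00064 µM (7 points) or 2 and 0.5 µM. Inhibition rate was calculated from HTRF 665/620 nm ratios versus solvent and blank controls.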

T1 sequence (P00533 25-1210): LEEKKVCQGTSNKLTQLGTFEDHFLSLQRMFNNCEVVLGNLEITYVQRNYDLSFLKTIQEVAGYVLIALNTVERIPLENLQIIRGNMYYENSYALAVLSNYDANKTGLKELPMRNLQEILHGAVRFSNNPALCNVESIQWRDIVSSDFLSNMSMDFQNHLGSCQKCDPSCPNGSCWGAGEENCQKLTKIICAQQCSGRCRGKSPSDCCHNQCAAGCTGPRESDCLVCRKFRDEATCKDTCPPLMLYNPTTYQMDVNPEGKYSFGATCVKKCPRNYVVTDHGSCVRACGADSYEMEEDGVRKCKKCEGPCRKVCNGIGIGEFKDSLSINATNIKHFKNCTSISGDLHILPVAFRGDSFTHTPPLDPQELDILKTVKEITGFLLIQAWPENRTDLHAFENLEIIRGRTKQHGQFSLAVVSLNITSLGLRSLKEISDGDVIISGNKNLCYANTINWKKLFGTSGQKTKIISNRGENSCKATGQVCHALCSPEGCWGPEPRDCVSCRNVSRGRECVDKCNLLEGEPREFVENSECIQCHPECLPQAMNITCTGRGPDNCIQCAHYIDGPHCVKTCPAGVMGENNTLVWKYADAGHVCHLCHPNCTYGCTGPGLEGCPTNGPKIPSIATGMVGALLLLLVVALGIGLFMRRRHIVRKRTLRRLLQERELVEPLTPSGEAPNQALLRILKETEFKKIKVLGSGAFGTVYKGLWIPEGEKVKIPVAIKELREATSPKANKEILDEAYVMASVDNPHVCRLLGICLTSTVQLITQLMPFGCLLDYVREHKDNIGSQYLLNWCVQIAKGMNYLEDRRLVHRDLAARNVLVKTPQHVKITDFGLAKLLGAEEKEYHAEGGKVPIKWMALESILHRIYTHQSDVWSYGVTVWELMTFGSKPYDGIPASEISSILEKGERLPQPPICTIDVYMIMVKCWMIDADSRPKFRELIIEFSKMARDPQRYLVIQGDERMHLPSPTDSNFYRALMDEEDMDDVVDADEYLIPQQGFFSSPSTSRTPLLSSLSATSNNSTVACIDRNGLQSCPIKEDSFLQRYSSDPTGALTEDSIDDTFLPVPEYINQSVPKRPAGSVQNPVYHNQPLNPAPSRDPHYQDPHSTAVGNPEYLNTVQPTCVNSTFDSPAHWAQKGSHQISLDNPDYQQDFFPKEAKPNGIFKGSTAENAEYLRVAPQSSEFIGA
T1 sequence (Q96SW2 whole entry partner): as the sequence (Q96SW2 whole entry) above

`O=C1CCN(N2Cc3cc(CN4CCN(c5ccc(-c6cc(F)c7c(c6)C(=O)N(C(C(=O)Nc6nccs6)c6ncn8c6CCC8)C7)cc5)CC4)ccc3C2=O)C(=O)N1` (stereo not shown) [GT-06159, 2-(6,7-dihydro-5H-pyrrolo[1,2-c]imidazol-1-yl)-2-(6-(4-(4-((2-(2,4-dioxotetrahydropyrimidin-1(2H)-yl)-1-oxoisoindolin-5-yl)methyl)piperazin-1-yl)phenyl)-4-fluoro-1-oxoisoindolin-2-yl)-N-(thiazol-2-yl)acetamide] was tested, and the “Degradation of substrate protein EGFR (substrate protein remaining %)” value (“Degradation … (substrate protein remaining %)” below) [1] was “A (0%≤substrate protein remaining %≤80%)” and the IC50 [2] was < 10 nM.
For `O=C1CCN(N2C(=O)c3ccc(N4CCC(CN5CCN(c6ccc(-c7cc(F)c8c(c7)C(=O)N(C(C(=O)Nc7nccs7)c7ncn9c7CCC9)C8)cc6)CC5)CC4)cc3C2=O)C(=O)N1` (stereo not shown) [GT-06161, 2-(6,7-dihydro-5H-pyrrolo[1,2-c]imidazol-1-yl)-2-(6-(4-(4-((1-(2-(2,4-dioxotetrahydropyrimidin-1(2H)-yl)-1,3-dioxoisoindolin-5-yl)piperidin-4-yl)methyl)piperazin-1-yl)phenyl)-4-fluoro-1-oxoisoindolin-2-yl)-N-(thiazol-2-yl)acetamide], the “Degradation … (substrate protein remaining %)” value [1] was “A (0%≤substrate protein remaining %≤80%)” and the IC50 [2] was 10 to 50 nM.
For `O=C1CCN(N2C(=O)c3ccc(N4CCC(CN5C[C@H]6C[C@@H]5CN6c5ccc(-c6cc(F)c7c(c6)C(=O)N(C(C(=O)Nc6nccs6)c6ncn8c6CCC8)C7)cc5)CC4)cc3C2=O)C(=O)N1` (stereo partly drawn) [GT-06174, 2-(6,7-dihydro-5H-pyrrolo[1,2-c]imidazol-1-yl)-2-(6-(4-((1R,4R)-5-((1-(2-(2,4-dioxotetrahydropyrimidin-1(2H)-yl)-1,3-dioxoisoindolin-5-yl)piperidin-4-yl)methyl)-2,5-diazabicyclo[2.2.1]heptan-2-yl)phenyl)-4-fluoro-1-oxoisoindolin-2-yl)-N-(thiazol-2-yl)acetamide], the “Degradation … (substrate protein remaining %)” value [1] was “A (0%≤substrate protein remaining %≤80%)” and the IC50 [2] was 10 to 50 nM.
`O=C1CCN(N2C(=O)c3cccc(N4CCC(CN5C[C@H]6C[C@@H]5CN6c5ccc(-c6cc(F)c7c(c6)C(=O)N(C(C(=O)Nc6nccs6)c6ncn8c6CCC8)C7)cc5)CC4)c3C2=O)C(=O)N1` (stereo partly drawn) [GT-06175, 2-(6,7-dihydro-5H-pyrrolo[1,2-c]imidazol-1-yl)-2-(6-(4-((1R,4R)-5-((1-(2-(2,4-dioxotetrahydropyrimidin-1(2H)-yl)-1,3-dioxoisoindolin-4-yl)piperidin-4-yl)methyl)-2,5-diazabicyclo[2.2.1]heptan-2-yl)phenyl)-4-fluoro-1-oxoisoindolin-2-yl)-N-(thiazol-2-yl)acetamide] was tested, and the “Degradation … (substrate protein remaining %)” value [1] was “A (0%≤substrate protein remaining %≤80%)” and the IC50 [2] was 10 to 50 nM.
`O=C1CCN(N2C(=O)c3ccc(CN4CCN(C5CCN(c6ccc(-c7cc(F)c8c(c7)C(=O)N(C(C(=O)Nc7nccs7)c7ncn9c7CCC9)C8)cc6)CC5)CC4)cc3C2=O)C(=O)N1` (stereo not shown) [GT-06242, 2-(6,7-dihydro-5H-pyrrolo[1,2-c]imidazol-1-yl)-2-(6-(4-(4-(4-((2-(2,4-dioxotetrahydropyrimidin-1(2H)-yl)-1,3-dioxoisoindolin-5-yl)methyl)piperazin-1-yl)piperidin-1-yl)phenyl)-4-fluoro-1-oxoisoindolin-2-yl)-N-(thiazol-2-yl)acetamide] showed an IC50 [2] of 50 to 100 nM.
`O=C1CCN(N2Cc3cc(CN4C5CCC4CN(c4ccc(-c6cc(F)c7c(c6)C(=O)N(C(C(=O)Nc6nccs6)c6ncn8c6CCC8)C7)cc4)C5)ccc3C2=O)C(=O)N1` (stereo not shown) [GT-06250, 2-(6,7-dihydro-5H-pyrrolo[1,2-c]imidazol-1-yl)-2-(6-(4-(8-((2-(2,4-dioxotetrahydropyrimidin-1(2H)-yl)-1-oxoisoindolin-5-yl)methyl)-3,8-diazabicyclo[3.2.1]octan-3-yl)phenyl)-4-fluoro-1-oxoisoindolin-2-yl)-N-(thiazol-2-yl)acetamide] was tested, and the IC50 [2] was < 10 nM.
Work on `O=C1CCN(N2C(=O)c3ccc(CN4C5CCC4CN(c4ccc(-c6cc(F)c7c(c6)C(=O)N(C(C(=O)Nc6nccs6)c6ncn8c6CCC8)C7)cc4)C5)cc3C2=O)C(=O)N1` (stereo not shown) [GT-06251, 2-(6,7-dihydro-5H-pyrrolo[1,2-c]imidazol-1-yl)-2-(6-(4-(8-((2-(2,4-dioxotetrahydropyrimidin-1(2H)-yl)-1,3-dioxoisoindolin-5-yl)methyl)-3,8-diazabicyclo[3.2.1]octan-3-yl)phenyl)-4-fluoro-1-oxoisoindolin-2-yl)-N-(thiazol-2-yl)acetamide] yielded an IC50 [2] of 100 to 130 nM.
`O=C1CCN(N2Cc3cc(CN4CCN(C5CCN(c6ccc(-c7cc(F)c8c(c7)C(=O)N(C(C(=O)Nc7nccs7)c7ncn9c7CCC9)C8)cc6)CC5(F)F)CC4)ccc3C2=O)C(=O)N1` (stereo not shown) [GT-06315, 2-(6,7-dihydro-5H-pyrrolo[1,2-c]imidazol-1-yl)-2-(6-(4-(4-(4-((2-(2,4-dioxotetrahydropyrimidin-1(2H)-yl)-1-oxoisoindolin-5-yl)methyl)piperazin-1-yl)-3,3-difluoropiperidin-1-yl)phenyl)-4-fluoro-1-oxoisoindolin-2-yl)-N-(thiazol-2-yl)acetamide] was tested, and the “Degradation … (substrate protein remaining %)” value [1] was “A (0%≤substrate protein remaining %≤80%)” and the IC50 [2] was < 10 nM.
`O=C1CCN(N2C(=O)c3ccc(CN4CCN(C5CCN(c6ccc(-c7cc(F)c8c(c7)C(=O)N(C(C(=O)Nc7nccs7)c7ncn9c7CCC9)C8)cc6)CC5(F)F)CC4)cc3C2=O)C(=O)N1` (stereo not shown) [GT-06316, 2-(6,7-dihydro-5H-pyrrolo[1,2-c]imidazol-1-yl)-2-(6-(4-(4-(4-((2-(2,4-dioxotetrahydropyrimidin-1(2H)-yl)-1,3-dioxoisoindolin-5-yl)methyl)piperazin-1-yl)-3,3-difluoropiperidin-1-yl)phenyl)-4-fluoro-1-oxoisoindolin-2-yl)-N-(thiazol-2-yl)acetamide] gave an IC50 [2] of 50 to 100 nM.
In the case of `O=C1CCN(N2Cc3cc(CN4CCC(N5CCN(c6ccc(-c7cc(F)c8c(c7)C(=O)N(C(C(=O)Nc7nccs7)c7ncn9c7CCC9)C8)cc6)CC5)CC4)ccc3C2=O)C(=O)N1` (stereo not shown) [GT-06324, 2-(6,7-dihydro-5H-pyrrolo[1,2-c]imidazol-1-yl)-2-(6-(4-(4-(1-((2-(2,4-dioxotetrahydropyrimidin-1(2H)-yl)-1-oxoisoindolin-5-yl)methyl)piperidin-4-yl)piperazin-1-yl)phenyl)-4-fluoro-1-oxoisoindolin-2-yl)-N-(thiazol-2-yl)acetamide], the IC50 [2] was 10 to 50 nM, the “Inhibition Rate at 0.5 μM (%)” value ([3]; 0.5 μM) was “a1 (10% < a1 ≤ 20%)” and the “Inhibition Rate at 2 μM (%)” value ([3]; 2 μM) was “a5 (53% < a5 ≤ 60%)”.
In the case of `CN(C)C/C=C/C(=O)Nc1cc2c(Nc3ccc(F)c(Cl)c3)ncnc2cc1O[C@H]1CCOC1` [afatinib, Afatinib, reference compound], the IC50 [2] was 130 to 200 nM.
`C#Cc1cccc(Nc2ncnc3cc(OCCOC)c(OCCOC)cc23)c1` [erlotinib, Erlotinib, reference compound] showed an IC50 [2] of 1000 to 5000 nM.
